# Assay results taken from patent publication US7060822B1, “2-pyrazolin-5-ones” (Abbott GmbH & Co. KG, priority 1999, dated 2006).
row,melting point [°C],Structure (SMILES)
1,180 to 182,"CCOC(=O)c1c(C)[nH]c(C=C2C(=O)NN=C2CCc2ccccn2)c1C [Example 149, 4-[(3,5-Dimethyl-4-ethoxycarbonylpyrrol-2-yl)methylene]-3-(2-pyridylethyl)-2-pyrazolin-5-one]"
2,256 to 258,"Cc1ccc(NC2=NNC(=O)C2=Cc2ccc[nH]2)cc1 [Example 15, 3-(4-Methylphenylamino)-4-[(pyrrol-2-yl)methylene]-2-pyrazolin-5-one]"
3,272 to 274,"COc1ccc2[nH]c(C=C3C(=O)NN=C3c3cnccn3)cc2c1 [Example 327, 4-[(5-Methoxyindol-2-yl)methylene]-3-pyrazinyl-2-pyrazolin-5-one]"
4,130 to 131,"CC(CC1=NNC(=O)C1=Cc1ccc[nH]1)c1ccccc1 (centres unmarked) [Example 25, 3-(2-Phenylpropyl)-4-[(pyrrol-2-yl)methylene]-2-pyrazolin-5-one]"
5,300 to 305,"O=C1NN=C(c2c[nH]c3ccccc23)C1=Cc1ccc[nH]1 [Example 20, 3-(Indol-3-yl)-4-[(pyrrol-2-yl)methylene]-2-pyrazolin-5-one]"
6,258 to 260,"CC(C)OC1=NNC(=O)C1=Cc1c[nH]c2ncccc12 [Example 336, 4-[(7-Azaindol-3-yl)methylene]-3-isopropoxy-2-pyrazolin-5-one]"
7,212 to 215,"Cc1c[nH]c(C=C2C(=O)NN=C2C2CC2)c1 [Example 68, 3-Cyclopropyl-4-[(4-methylpyrrol-2-yl)methylene]-2-pyrazolin-5-one]"
8,137 to 139,"COc1ccc(CCC2=NNC(=O)C2=Cc2ccc[nH]2)cc1 [Example 23, 3-(4-Methoxyphenylethyl)-4-[(pyrrol-2-yl)methylene]-2-pyrazolin-5-one]"
9,206 to 209,"O=C1NN=C(c2cnccn2)C1=Cc1cc2c([nH]1)CCC=C2Cl [Example 330, 4-[(4-Chloro-6,7-dihydroindol-2-yl)methylene]-3-pyrazinyl-2-pyrazolin-5-one]"
10,206 to 210,"CCc1c(C)[nH]c(C=C2C(=O)NN=C2C2CC2)c1C [Example 66, 3-Cyclopropyl-4[(3,5-dimethyl-4-ethylpyrrol-2-yl)methylene]-2-pyrazolin-5-one]"
11,220,"CCN(CC)CCc1c(C)[nH]c(C=C2C(=O)NN=C2c2ccncn2)c1C [Example 208, 4-{[4-(2-Diethylaminoethyl)-3,5-dimethylpyrrol-2-yl]methylene}-3-(4-pyrimidinyl)-2-pyrazolin-5-one]"
12,201 to 203,"Cn1cc(C=C2C(=O)NN=C2C(C)(C)C)c2ccccc21 [Example 303, 4-[(1-Methylindol-3-yl)methylene]-3-tert-butyl-2-pyrazolin-5-one]"
13,169 to 171,"COc1cccc(CC2=NNC(=O)C2=Cc2ccc[nH]2)c1 [Example 21, 3-(3-Methoxybenzyl)-4-[(pyrrol-2-yl)methylene]-2-pyrazolin-5-one]"
14,192 to 194,"O=C1NN=C(COc2ccc(-c3ccccc3)cc2)C1=Cc1ccc[nH]1 [Example 24, 3-(4-Phenylphenyloxymethyl)-4-[(pyrrol-2-yl)methylene]-2-pyrazolin-5-one]"
15,272 to 273,"O=C1NN=C(Nc2ccc(F)cc2)C1=Cc1ccc[nH]1 [Example 33, 3-(4-Fluorophenylamino)-4-[(pyrrol-2-yl)methylene]-2-pyrazolin-5-one]"
16,273 to 276,"COc1ccc(CC2=NNC(=O)C2=Cc2c[nH]c3ncccc23)cc1 [Example 338, 4-[(7-Azaindol-3-yl)methylene]-3-(4-methoxybenzyl)-2-pyrazolin-5-one]"

row,melting point [°C],Structure (SMILES)
1,180 to 183,"O=C1NN=C(C2CCOC2)C1=Cc1cc2ccccc2[nH]1 (centres unmarked) [Example 316, 4-[(Indol-2-yl)methylene]-3-(tetrahydrofuran-3-yl)-2-pyrazolin-5-one]"
2,219 to 220,"COc1ccc2[nH]c(C=C3C(=O)NN=C3OC(C)C)cc2c1 [Example 314, 3-Isopropoxy-4-[(5-methoxyindol-2-yl)methylene]-2-pyrazolin-5-one]"
3,249 to 252,"O=C1NN=C(Nc2ccccc2)C1=Cc1c[nH]c2ncccc12 [Example 339, 4-[(7-Azaindol-3-yl)methylene]-3-phenylamino-2-pyrazolin-5-one]"
4,216,"Cc1[nH]c(C=C2C(=O)NN=C2c2cnccn2)c(C)c1CCN(C)C [Example 191, 4-{[3,5-Dimethyl-4-(2-dimethylaminoethyl)pyrrol-2-yl]methylene}-3-pyrazinyl-2-pyrazolin-5-one]"
5,264 to 267,"O=C1NN=C(COc2ccc(Cl)cc2)C1=Cc1c[nH]c2ccccc12 [Example 214, 3-(4-Chlorophenyloxymethyl)-4-[(indol-3-yl)methylene]-2-pyrazolin-5-one]"
6,226 to 228,"CCOC(=O)c1c(C)[nH]c(C=C2C(=O)NN=C2OC(C)C)c1C [Example 49, 4-[(3,5-Dimethyl-4-ethoxycarbonylpyrrol-2-yl)methylene]-3-isopropoxy-2-pyrazolin-5-one]"
7,216 to 217,"CCOC(=O)c1c(C)[nH]c(C=C2C(=O)NN=C2c2ccccc2)c1C [Example 145, 4-[(3,5-Dimethyl-4-ethoxycarbonylpyrrol-2-yl)methylene]-3-phenyl-2-pyrazolin-5-one]"
8,> 300,"O=C1NN=C(C2CCC2)C1=Cc1c[nH]c2ccccc12 [Example 259, 3-Cyclobutyl-4-[(indol-3-yl)methylene]-2-pyrazolin-5-one]"
9,169 to 170,"O=C1NN=C(CCCc2ccccc2)C1=Cc1ccc[nH]1 [Example 26, 3-(3-Phenylpropyl)-4-[(pyrrol-2-yl)methylene]-2-pyrazolin-5-one]"
10,195 to 197,"Cc1cc(C=C2C(=O)NN=C2OC(C)C)[nH]c1C [Example 35, 4-[(4,5-Dimethylpyrrol-2-yl)methylene]-3-isopropoxy-2-pyrazolin-5-one]"
11,145 to 147,"O=C1NN=C(CCc2ccccc2)C1=Cc1ccc[nH]1 [Example 12, 3-Phenylethyl-4-[(pyrrol-2-yl)methylene]-2-pyrazolin-5-one]"
12,244 to 246,"Nc1ccc(CCC2=NNC(=O)C2=Cc2c[nH]c3ccccc23)cc1 [Example 243, 3-(4-Aminophenylethyl)-4-[(indol-3-yl)methylene]-2-pyrazolin-5-one]"
13,172 to 174,"CC(C)OC1=NNC(=O)C1=Cc1ccc[nH]1 [Example 11, 3-Isopropoxy-4-[(pyrrol-2-yl)methylene]-2-pyrazolin-5-one]"
14,173 to 175,"Cc1[nH]c(C=C2C(=O)NN=C2OC(C)C)c(C)c1CN(C)C [Example 86, 4-[(3,5-Dimethyl-4-dimethylaminomethylpyrrol-2-yl)methylene]-3-isopropoxy-2-pyrazolin-5-one]"
15,280 to 282,"Cc1ccc(CC2=NNC(=O)C2=Cc2c[nH]c3ccccc23)cc1 [Example 219, 4-[(Indol-3-yl)methylene]-3-(4-methylbenzyl)-2-pyrazolin-5-one]"
16,259 to 260,"CC(C)OC1=NNC(=O)C1=Cc1c[nH]cn1 [Example 366, 4-[(Imidazol-4-yl)methylene]-3-isopropoxy-2-pyrazolin-5-one]"
